The CheMixHub ionic liquid set

Experiment: xn = mol fraction of the nth substance listed
Conditions: 298.15 K, 101 kPa

O=P([O-])([O-])O.[Na+].[Na+] + CCCCCCCCCCCC[N+](C)(C)C.[Br-] + O
Conditions	electrical conductivity [S/m]
x2 = 0, x1 = 0.0001802	0.1834
x2 = 0, x1 = 0.001799	1.203
x2 = 3.43e-06, x1 = 0.0001802	0.1849
x2 = 4.01e-06, x1 = 0.001799	1.201
x2 = 7.22e-06, x1 = 0.0001802	0.1863
x2 = 1.095e-05, x1 = 0.001799	1.202
x2 = 1.245e-05, x1 = 0.0001802	0.1888
x2 = 1.967e-05, x1 = 0.0001802	0.1919
x2 = 2.007e-05, x1 = 0.001799	1.204
x2 = 2.851e-05, x1 = 0.0001802	0.1958
x2 = 2.882e-05, x1 = 0.001799	1.205
x2 = 3.717e-05, x1 = 0.0001802	0.1997
x2 = 4.214e-05, x1 = 0.001799	1.207
x2 = 4.619e-05, x1 = 0.0001802	0.2038
x2 = 5.521e-05, x1 = 0.0001802	0.2079
x2 = 5.582e-05, x1 = 0.001799	1.209
x2 = 6.423e-05, x1 = 0.0001802	0.212
x2 = 6.895e-05, x1 = 0.001799	1.212
x2 = 7.307e-05, x1 = 0.0001801	0.2161
x2 = 8.173e-05, x1 = 0.0001801	0.2201
x2 = 8.209e-05, x1 = 0.001799	1.215
x2 = 9.056e-05, x1 = 0.0001801	0.224
x2 = 9.522e-05, x1 = 0.001799	1.218
x2 = 9.922e-05, x1 = 0.0001801	0.2279
x2 = 0.0001077, x1 = 0.0001801	0.2317
x2 = 0.0001087, x1 = 0.001799	1.221
x2 = 0.0001165, x1 = 0.0001801	0.2356
x2 = 0.0001218, x1 = 0.001799	1.224
x2 = 0.000125, x1 = 0.0001801	0.2393
x2 = 0.0001335, x1 = 0.0001801	0.243
x2 = 0.0001366, x1 = 0.001799	1.228
x2 = 0.0001441, x1 = 0.0001801	0.2473
x2 = 0.0001519, x1 = 0.001798	1.232
x2 = 0.0001524, x1 = 0.0001801	0.2509
x2 = 0.0001609, x1 = 0.0001801	0.2547
x2 = 0.0001667, x1 = 0.001798	1.236
x2 = 0.0001694, x1 = 0.0001801	0.2586
x2 = 0.0001777, x1 = 0.0001801	0.2624
x2 = 0.0001813, x1 = 0.001798	1.24
x2 = 0.0001858, x1 = 0.0001801	0.2662
x2 = 0.0001937, x1 = 0.0001801	0.2697
x2 = 0.0001963, x1 = 0.001798	1.243
x2 = 0.0002019, x1 = 0.0001801	0.2733
x2 = 0.0002103, x1 = 0.0001801	0.2774
x2 = 0.0002105, x1 = 0.001798	1.246
x2 = 0.0002184, x1 = 0.0001801	0.2809
x2 = 0.0002245, x1 = 0.001798	1.249
x2 = 0.000226, x1 = 0.0001801	0.2841
x2 = 0.0002339, x1 = 0.0001801	0.2867
x2 = 0.0002387, x1 = 0.001798	1.252
x2 = 0.0002421, x1 = 0.0001801	0.2888
x2 = 0.0002516, x1 = 0.0001801	0.2909
x2 = 0.0002524, x1 = 0.001798	1.254
x2 = 0.0002625, x1 = 0.0001801	0.2928
x2 = 0.0002663, x1 = 0.001798	1.257
x2 = 0.0002743, x1 = 0.0001801	0.2947
x2 = 0.0002801, x1 = 0.001798	1.259
x2 = 0.0002882, x1 = 0.0001801	0.2967
x2 = 0.0002936, x1 = 0.001798	1.262
x2 = 0.0003037, x1 = 0.0001801	0.2989
x2 = 0.0003071, x1 = 0.001798	1.265
x2 = 0.0003189, x1 = 0.0001801	0.3011
x2 = 0.0003202, x1 = 0.001798	1.268
x2 = 0.0003294, x1 = 0.001798	1.27
x2 = 0.0003301, x1 = 0.0001801	0.3025
